According to patent US9783536B2, “Nitrogen-containing heterocyclic compound or salt thereof” (FUJIFILM Corporation, priority 2013, dated 2017):
Structures can show the parent of a compound that is named as a salt. Where two headings read alike, the source gives them in different places.

How the values were obtained:
human PI3Kα protein = target: T1, human PI3Kα protein (Homo sapiens, UniProt P42336); assay: PI3Kα enzyme assay (ADP-Glo); type: biochemical; conditions: read-out: PI3Kα enzyme inhibitory activity
T1 construct: purchased Carna Biosciences, Inc; host or cells: baculovirus expression system
T1 sequence (P42336 whole entry): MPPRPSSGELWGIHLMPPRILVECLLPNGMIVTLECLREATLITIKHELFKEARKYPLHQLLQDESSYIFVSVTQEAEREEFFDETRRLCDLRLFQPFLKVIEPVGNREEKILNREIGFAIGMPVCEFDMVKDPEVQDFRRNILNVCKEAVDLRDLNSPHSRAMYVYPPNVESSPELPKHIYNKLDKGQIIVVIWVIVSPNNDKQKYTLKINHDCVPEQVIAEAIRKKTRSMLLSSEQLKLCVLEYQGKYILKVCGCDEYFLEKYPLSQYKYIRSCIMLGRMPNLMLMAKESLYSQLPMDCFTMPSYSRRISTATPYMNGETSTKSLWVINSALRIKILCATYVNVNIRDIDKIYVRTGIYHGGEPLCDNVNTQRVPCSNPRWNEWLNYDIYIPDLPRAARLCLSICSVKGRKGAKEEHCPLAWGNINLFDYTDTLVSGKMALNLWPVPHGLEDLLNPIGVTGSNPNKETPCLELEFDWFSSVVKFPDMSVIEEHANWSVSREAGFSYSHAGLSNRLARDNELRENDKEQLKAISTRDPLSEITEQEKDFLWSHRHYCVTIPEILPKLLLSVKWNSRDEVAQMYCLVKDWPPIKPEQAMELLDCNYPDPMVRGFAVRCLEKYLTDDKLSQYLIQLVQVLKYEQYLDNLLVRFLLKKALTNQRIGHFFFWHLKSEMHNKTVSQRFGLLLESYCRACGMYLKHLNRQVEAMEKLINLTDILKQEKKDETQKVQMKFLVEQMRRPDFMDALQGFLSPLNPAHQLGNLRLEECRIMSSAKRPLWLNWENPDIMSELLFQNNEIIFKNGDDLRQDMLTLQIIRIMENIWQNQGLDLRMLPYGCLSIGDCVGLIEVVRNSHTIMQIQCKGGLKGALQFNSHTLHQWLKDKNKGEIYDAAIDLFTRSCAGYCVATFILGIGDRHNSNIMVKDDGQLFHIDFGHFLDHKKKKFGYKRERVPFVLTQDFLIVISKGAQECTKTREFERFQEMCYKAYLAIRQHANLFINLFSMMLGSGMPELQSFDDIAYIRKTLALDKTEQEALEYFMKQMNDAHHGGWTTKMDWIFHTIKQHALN
T1 sequence (P27986 whole entry partner): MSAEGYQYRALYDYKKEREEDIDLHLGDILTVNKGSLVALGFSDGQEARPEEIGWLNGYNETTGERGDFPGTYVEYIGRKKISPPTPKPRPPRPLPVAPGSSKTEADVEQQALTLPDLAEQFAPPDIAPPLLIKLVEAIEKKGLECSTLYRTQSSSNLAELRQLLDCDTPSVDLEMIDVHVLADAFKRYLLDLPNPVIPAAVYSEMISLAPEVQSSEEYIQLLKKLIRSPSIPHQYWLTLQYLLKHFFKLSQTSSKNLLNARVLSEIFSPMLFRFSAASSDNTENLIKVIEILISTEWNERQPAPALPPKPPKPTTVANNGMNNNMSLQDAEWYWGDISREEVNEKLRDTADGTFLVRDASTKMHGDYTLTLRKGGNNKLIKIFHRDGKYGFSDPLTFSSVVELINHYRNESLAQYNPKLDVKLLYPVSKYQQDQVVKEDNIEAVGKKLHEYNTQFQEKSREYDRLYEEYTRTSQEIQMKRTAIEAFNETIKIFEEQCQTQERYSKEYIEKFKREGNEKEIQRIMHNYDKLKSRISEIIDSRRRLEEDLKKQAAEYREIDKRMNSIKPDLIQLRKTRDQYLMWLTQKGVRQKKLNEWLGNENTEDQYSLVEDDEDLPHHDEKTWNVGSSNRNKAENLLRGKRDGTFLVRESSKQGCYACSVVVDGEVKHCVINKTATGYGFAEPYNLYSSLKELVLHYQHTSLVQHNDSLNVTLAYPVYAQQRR
How it was run: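 Biotinylated human PI3Kα (baculovirus-expressed, 4.5 nmol/L) pre-incubated 15 min with compound in Tris-HCl pH 7.5, MgCl2, BSA; reaction 60 min at 25° C with 50 μmol/L PIP2 and 100 μmol/L ATP final. ADP quantified by ADP-Glo luminescence; IC50 calculated.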

[1] = target: T2, GST fusion human ERK2 protein (Homo sapiens, UniProt P28482); assay: ERK2 enzyme assay (2); type: biochemical; conditions: read-out: ERK2 enzyme inhibitory activity (2)
T2 construct: purchased Carna Biosciences, Inc; host or cells: E. coli expression system
T2 sequence (P28482 whole entry, the tested form may be a part): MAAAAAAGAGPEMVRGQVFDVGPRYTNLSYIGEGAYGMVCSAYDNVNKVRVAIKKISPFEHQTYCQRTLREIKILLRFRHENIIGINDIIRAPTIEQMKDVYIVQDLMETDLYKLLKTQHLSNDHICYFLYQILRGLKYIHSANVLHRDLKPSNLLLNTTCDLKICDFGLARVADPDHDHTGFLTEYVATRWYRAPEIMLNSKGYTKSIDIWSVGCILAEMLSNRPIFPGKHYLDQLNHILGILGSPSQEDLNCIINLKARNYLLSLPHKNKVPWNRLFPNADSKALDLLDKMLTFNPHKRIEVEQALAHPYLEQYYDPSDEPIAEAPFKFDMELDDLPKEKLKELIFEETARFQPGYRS
How it was run: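 GST-tagged human ERK2 expressed in E. coli (1.25 nmol/L) was preincubated with compound for 15 min at room temperature in pH 7.5 Hepes buffer with MgCl2, DTT and Brij35. Reaction with FL-Peptide 8 (final 4.25 μmol/L) and ATP (final 1 mmol/L) ran 120 min at 25 °C; EDTA stopped it, and phosphorylated peptide was quantified by mobility-shift separation to derive IC50.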

| SMILES | IC50 (human PI3Kα protein) [µM] | IC50 ([1]; ERK2 enzyme assay (2)) [µM] | IC50 [1] [µM] |
| --- | --- | --- | --- |
| COc1cccc(Cn2cc(-c3cnc4ccc(Nc5cc(C(C)C)cnn5)nc4c3)cn2)n1 [Example 0412, N-(5-isopropylpyridazin-3-yl)-7-(1-((6-methoxypyridin-2-yl)methyl)-1H-pyrazol-4-yl)-1,5-naphthyridine-2-amine] | < 1 | < 1 |  |
| Cc1ccc(S(=O)(=O)Nc2cnc3ccc(Nc4cc(C(C)C)cnn4)nc3c2)cc1 [Example 0839, N-(6-((5-isopropylpyridazin-3-yl)amino)-1,5-naphthyridin-3-yl)-4-methylbenzene sulfonamide] | 10 to 50 | 1 to 10 |  |
| CC(C)c1cnnc(Nc2ccc3ncc(-c4cnn(CC5CCN(C(=O)C6CC6)CC5)c4)cc3n2)c1 [Example 0534] | < 1 | < 1 |  |
| Cc1nn(C)cc1-c1cnc2ccc(Nc3cc(C4CCOCC4)cnn3)nc2c1 [Example 0760, 7-(1,3-Dimethyl-1H-pyrazol-4-yl)-N-(5-(tetrahydro-2H-pyran-4-yl)pyridazin-3-yl)-1,5-naphthyridine-2-amine] | < 1 | < 1 |  |
| CC(C)c1cnnc(Nc2ccc3ncc(-c4cnn(CCCN5CC(OCC(F)(F)F)C5)c4)cc3n2)c1 [Example 0699] | < 1 | < 1 |  |
| CC(C)c1cnnc(Nc2ccc3ncc(-c4cnn(CCCN5CCC(F)(F)C5)c4)cc3n2)c1 [Example 0427] | < 1 | < 1 |  |
| CCOc1c(-c2cnn(C)c2)cnc2ccc(Nc3cc(C(C)C)cnn3)nc12 [Example 0951, 8-Ethoxy-N-(5-isopropylpyridazin-3-yl)-7-(1-methyl-1H-pyrazol-4-yl)-1,5-naphthyridine-2-amine] | < 1 |  | < 1 |
| CC(C)c1cnnc(Nc2ccc3ncc(-c4cnn(CCCN5CC(C(=O)N6CCOCC6)C5)c4)cc3n2)c1 [Example 0689] | < 1 | < 1 |  |
| COc1ccc(-c2nn(C)cc2-c2cnc3ccc(Nc4cc(C)cnn4)nc3c2)cn1 [Example 0458] | < 1 | 10 to 50 |  |
| CC(C)c1cnnc(Nc2ccc3ncc(-c4cnc(N5CCN(C)CC5)s4)cc3n2)c1 [Example 0498, N-(5-isopropylpyridazin-3-yl)-7-(2-(4-methylpiperazin-1-yl)thiazol-5-yl)-1,5-naphthyridine-2-amine] | < 1 | < 1 |  |
| CC(C)c1cnnc(Nc2ccc3ncc(-c4cnn(CCCN5CCC(F)(F)CC5)c4)cc3n2)c1 [Example 0419, 7-(1-(3-(4,4-Difluoropiperidin-1-yl)propyl)-1H-pyrazol-4-yl)-N-(5-isopropylpyridazin-3-yl)-1,5-naphthyridine-2-amine] | < 1 | < 1 |  |
| CC(C)c1cnnc(Nc2ccc3ncc(N4CC(OCC(F)(F)F)C4)cc3n2)c1 [Example 0865] | 1 to 10 | 1 to 10 |  |
| CC(C)c1cnnc(Nc2ccc3ncc(-c4cn(C)nc4COc4cccnn4)cc3n2)c1 [Example 0913, N-(5-isopropylpyridazin-3-yl)-7-(1-methyl-3-((pyridazin-3-yloxy)methyl)-1H-pyrazol-4-yl)-1,5-naphthyridine-2-amine] | < 1 |  | < 1 |
| CC(=O)Nc1ccc(Cn2cc(-c3cnc4ccc(Nc5cc(C(C)C)cnn5)nc4c3)cn2)cc1 [Example 0470, N-(4-((4-(6-((5-isopropylpyridazin-3-yl)amino)-1,5-naphthyridin-3-yl)-1H-pyrazol-1-yl)methyl)phenyl)acetamide] | < 1 | < 1 |  |
| CC(C)c1cnnc(Nc2ccc3ncc(-c4cn(C)nc4Nc4ccncc4)cc3n2)c1 [Example 0798] | < 1 | < 1 |  |
| CCC(CC)c1cnnc(Nc2ccc3ncc(-c4cnn(CCOC5CN(C(C)C)C5)c4)cc3n2)c1 [Example 0818] | < 1 | < 1 |  |
| CC(C)c1cnnc(Nc2ccc3ncc(-c4cn(C)nc4-c4ccnc(N)c4)cc3n2)c1 [Example 0752, 7-(3-(2-aminopyridin-4-yl)-1-methyl-1H-pyrazol-4-yl)-N-(5-isopropylpyridazin-3-yl)-1,5-naphthyridine-2-amine] | < 1 | < 1 |  |
| CN(C)S(=O)(=O)Cc1cnnc(Nc2ccc3ncc(-c4cnn(C)c4)cc3n2)c1 [Example 0924] | < 1 |  | < 1 |
| c1nnc(Nc2ccc3ncc(-c4cnn(CCOC5CNC5)c4)cc3n2)cc1CC1CCCCC1 [Example 0817] | < 1 | < 1 |  |
| CC(C)c1cnnc(Nc2ccc3ncc(-c4cnn(CCC(=O)N5CCCCC5)c4)cc3n2)c1 [Example 0416] | < 1 | < 1 |  |
| CC(C)c1cnnc(Nc2ccc3ncc(-c4cnn(CC5CCNCC5)c4)cc3n2)c1 [Example 0485, trifluoroacetic acid salt of N-(5-isopropylpyridazin-3-yl)-7-(1-(piperidin-4-ylmethyl)-1H-pyrazol-4-yl)-1,5-naphthyridine-2-amine] | < 1 | < 1 |  |
| Cc1ccc(-c2cnc3ccc(Nc4cc(C(C)C)cnn4)nc3c2)cn1 [Example 0597] | 1 to 10 | < 1 |  |

| SMILES | IC50 (human PI3Kα protein) [µM] | IC50 ([1]; ERK2 enzyme assay (2)) [µM] | IC50 [1] [µM] |
| --- | --- | --- | --- |
| Cn1cc(-c2cnc3ccc(Nc4cc(CC5CCCCC5)cnn4)nc3c2)cn1 [Example 0586] | < 1 | < 1 |  |
| CC(C)c1cnnc(Nc2ccc3ncc(-c4cn(C)nc4NCc4ccncc4)cc3n2)c1 [Example 0835] | < 1 | < 1 |  |
| CC(C)c1cnnc(Nc2ccc3ncc(-c4cn(C)nc4N(C)C)cc3n2)c1 [Example 0938, 7-(3-(Dimethylamino)-1-methyl-1H-pyrazol-4-yl)-N-(5-isopropylpyridazin-3-yl)-1,5-naphthyridine-2-amine] | < 1 |  | < 1 |
| CC(C)c1cnnc(Nc2ccc3ncc(-c4cnn(C(C)(C)C)c4)cc3n2)c1 [Example 0481] | 1 to 10 | < 1 |  |
| Cc1ccc(-c2nn(C)cc2-c2cnc3ccc(Nc4cc(C(C)C)cnn4)nc3c2)cc1 [Example 0767, N-(5-isopropylpyridazin-3-yl)-7-(1-methyl-3-(4-methylphenyl)-1H-pyrazol-4-yl)-1,5-naphthyridine-2-amine] | < 1 | < 1 |  |
| CC(C)c1cnnc(Nc2ccc3ncc(N4CC(NS(C)(=O)=O)C4)cc3n2)c1 [Example 0867] | < 1 | < 1 |  |
| Cc1ccncc1-c1cnc2ccc(Nc3cc(C(C)C)cnn3)nc2c1 [Example 0600] | 1 to 10 | < 1 |  |
| CCN1CC(OCCn2cc(-c3cnc4ccc(Nc5cc(C(C)C)cnn5)nc4c3)cn2)C1 [Example 0746, 7-(1-(2-((l-Ethylazetidin-3-yl)oxy)ethyl)-1H-pyrazol-4-yl)-N-(5-isopropylpyridazin-3-yl)-1,5-naphthyridine-2-amine] | < 1 | < 1 |  |
| CC(C)c1cnnc(Nc2ccc3ncc(C(=O)NCCO)cc3n2)c1 [Example 0655, N-(2-hydroxyethyl)-6-((5-isopropylpyridazin-3-yl)amino)-1,5-naphthyridine-3-carboxamide] | 1 to 10 | 1 to 10 |  |
| CC(=O)N1CCCC(Nc2cnc3ccc(Nc4cc(C(C)C)cnn4)nc3c2)C1 (centres unmarked) [Example 0541] | < 1 | 1 to 10 |  |
| Cc1cnnc(Nc2ccc3ncc(-c4cn(C)nc4-c4ccc(C#N)nc4)cc3n2)c1 [Example 0457] | < 1 | 10 to 50 |  |
| CC(C)c1cnnc(Nc2ccc3ncc(-c4cnc(N5CCNCC5)s4)cc3n2)c1 [Example 0502] | < 1 | < 1 |  |
| Cn1cc(-c2cnc3ccc(Nc4cc(C(C)(C)CO[Si](C)(C)C(C)(C)C)cnn4)nc3c2)cn1 [Example 0559, N-(5-(1-((tert-butyldimethylsilyl)oxy)-2-methylpropan-2-yl)pyridazin-3-yl)-7-(1-methyl-1H-pyrazol-4-yl)-1,5-naphthyridine-2-amine] | 10 to 50 | < 1 |  |
| CC(C)c1cnnc(Nc2ccc3ncc(-c4cnn(CCCN5CC(OCc6ccccc6)C5)c4)cc3n2)c1 [Example 0680] | < 1 | < 1 |  |
| CC(C)c1cnnc(Nc2ccc3ncc(-c4ccnc(N)n4)cc3n2)c1 [Example 0766] | < 1 | < 1 |  |
| CC(C)c1cnnc(Nc2ccc3ncc(-c4cn(C)nc4CN4CCN(c5ccncc5)CC4)cc3n2)c1 [Example 0909] | < 1 |  | < 1 |
| CC(C)c1cnnc(Nc2ccc3ncc(-c4cnn(CCOC5CN(S(C)(=O)=O)C5)c4)cc3n2)c1 [Example 0755, N-(5-isopropylpyridazin-3-yl)-7-(1-(2-((1-(methylsulfonyl)azetidin-3-yl)oxy)ethyl)-1H-pyrazol-4-yl)-1,5-naphthyridine-2-amine] | < 1 | < 1 |  |
| CCCOC1CN(CCCn2cc(-c3cnc4ccc(Nc5cc(C(C)C)cnn5)nc4c3)cn2)C1 [Example 0706] | < 1 | < 1 |  |
| CC(C)c1cnnc(Nc2ccc3ncc(Br)cc3n2)c1 [Example 0929, 7-bromo-N-(5-isopropylpyridazin-3-yl)-1,5-naphthyridine-2-amine] | 1 to 10 |  | < 1 |
| Cn1cc(-c2cnc3ccc(Nc4cc(C(C)(C)O)cnn4)nc3c2)c(-c2ccncc2)n1 [Example 0782] | < 1 | < 1 |  |
| COCC(C)c1cnnc(Nc2ccc3ncc(-c4cnn(C)c4)cc3n2)c1 (centres unmarked) [Example 0788, N-(5-(1-methoxypropan-2-yl)pyridazin-3-yl)-7-(1-methyl-1H-pyrazol-4-yl)-1,5-naphthyridine-2-amine] | < 1 | < 1 |  |
